Laboratory results taken from patent US5968920A, “Compounds having a benzisoselen-azoline and -azine structure, method for preparing same and therapeutic uses thereof” (Oxis Isle of Man, Limited, priority 1994, dated 1999).

Assays:
[1] = system: endothelial cells; assay: Adhesion of PMN to endothelial cells induced by TNF-α (myeloperoxidase); assay type: cell-based, human; details: compound 10 μM vs pentoxifylline 50 μM; TNF-α 1 ng/ml
Experimental: Human endothelial cells were cultivated under the same conditions as those described for Example 18.
When the cells were near confluence, they were incubated for one hour in the presence or absence of the following compounds: BXT-51072, BXT-51077 or pentoxifylline. Compounds BXT-51072 and BXT-51077, each at 10 μM, and the pentoxifylline, at 50 μM, were incorporated in culture medium containing 2% of foetal calf serum, all other conditions being the same. […] Myeloperoxidase (MPO), an enzyme specifically contained in PMNs, was then measured in the cell lysates obtained to evaluate adhesion of the PMNs on the endothelial cells. The von Willebrandt factor (vWf) liberated in the culture medium by the endothelial cells was measured after three and a half hours of incubation, as a label of the changes in the cells.
Incubation of the endothelial cells in the presence of PMN and TNF-α led to a very significant increase in the quantity of MPO and vWf with respect to the respective controls (PMN alone, and endothelial cells alone respectively), meaning the adhesion of activated PMNs to the endothelial cells and changes in the latter.
They are expressed as the percentage inhibition by referring the MPO and vWf measurements to the respective concentrations of MPO and vWf determined when the endothelial cells were incubated with TNF-α and PMNs.

[2] = system: rat; assay: Tolerance after repeated oral administration to the rat in vivo; set-up: species or system Sprague-Dawley rat; details: 14 days
Experimental: Male adult Sprague-Dawley rats were randomly divided into 4 groups. To one group of 10 rats and another group of 15 rats, one dose of 10 μmoles and one dose of 100 μmoles per kilogram of body weight of BXT-51072 were respectively orally administered (force feeding) each day for 14 days. These doses were administered using an aqueous solution containing 1% of sodium carboxymethylcellulose (CMC). Using the same procedure, a third group of 12 rats received only the vector (1% CMC) and a […] group of 3 rats received no force feeding.
In order to evaluate any toxicity in the test compound, all the animals were regularly weighed over the 14 days. Their appearance and behavior were observed daily.
About 16 hours after the final administration, the rats were anaesthetised with ketamine and blood samples were taken by intra-cardiac tapping to measure different hematological and biochemical parameters. The weight curves of the animals are shown in FIGS. 5 and 6 and Table 3 summarises the results of measurements carried out on the blood of the animals and the corresponding deviations.

[3] = Glutathione peroxidase activity, hydrogen peroxide; assay type: biochemical; details: compound 20 μM, pH = 7.3, 37° C., [GSH] = 2 mM
Experimental: To 1.5 ml of HEPES buffer, 50 mM, pH=7.3, containing 0.2 mM of DTPA, 0.144 mM of NADPH, 2.2 mM of reduced glutathione and 1.1 U/ml of glutathione disulfide reductase, pre-equilibrated for 2 minutes at 37° C., 100 μl of an ethanolic mother solution of the compound to be tested or 100 μl of absolute ethanol (blank) was added. Each compound was tested at a final concentration of 20 μM.
Subsequently, 50 μl of the following was added:
or hydrogen peroxide (H2 O2), 1.6 mM in ultrapure water;
or the hydroperoxide of linoleic acid (18:2-OOH) prepared using soya lipoxygenase (see M. O. Funk et al., Lipids, (1976), 11, pp 113-117), 3.3 mM in a water/methanol mixture, 85/15 (V/V). The glutathione peroxidase activity was measured at 37° C. by measuring the reduction in absorbance at 340 nm over 5 minutes. The initial enzymatic rate or activity was proportional to the slope of the plot of absorbance against time.
They are expressed in nmoles of hydroperoxide reduced per minute.

[4] = 10 and 100 μmoles/kg oral daily

CC1(C)CN[Se]c2ccccc21 [BXT-51072, 4,4-dimethyl-benzisoselenazine]
inhibition of the adhesion of PMN induced by TNF-α (MPO) [1]: inhibit the adhesion of PMN induced by TNF-α, much more effectively than pentoxifylline | BAS (basophiles) ([2]; 10 μmoles/kg oral, n 4): 0% | EOS (eosinophiles) ([2]; 10 μmoles/kg oral, n 4): 0% | GB (White cells) ([2]; 10 μmoles/kg oral, n 4): 8.45 G/l | GR (Red cells) ([2]; 10 μmoles/kg oral, n 4): 6.88 T/l | HB (Hemoglobin) ([2]; 10 μmoles/kg oral, n 4): 9.08 mM | HCT (Hematocrit) ([2]; 10 μmoles/kg oral, n 4): 0.41 | LYM (Lymphocytes) ([2]; 10 μmoles/kg oral, n 4): 82% | MON (Monocytes) ([2]; 10 μmoles/kg oral, n 4): 0% | NEU (neutrophiles) ([2]; 10 μmoles/kg oral, n 4): 18% | PAL (Alkaline phosphalase) ([2]; 10 μmoles/kg oral, n 4): 320 Ul/l | PLT (Platelets) ([2]; 10 μmoles/kg oral, n 4): 541 G/l | Urea ([2]; 10 μmoles/kg oral, n 4): 4.03 mM | VGM (Average cell volume of GR) ([2]; 10 μmoles/kg oral, n 4): 59.8 II | K^+ ([2]; 10 μmoles/kg oral, n = 1): 5.0 mM | Na^+ ([2]; 10 μmoles/kg oral, n = 1): 143 mM | Cl^- ([2]; 10 μmoles/kg oral, n = 2): 93 mM | Prot (Proteins) ([2]; 10 μmoles/kg oral, n = 2): 53.9 g/L | ALAT (Alanine aminotransferase) ([2]; 10 μmoles/kg oral, n = 3): 50 Ul/l | ASAT (Aspartale aminotransferase) ([2]; 10 μmoles/kg oral, n = 3): 136 Ul/l | weight gain ([2]; 100 μmoles/kg oral daily): slight slowing in weight gain | BAS (basophiles) ([2]; 100 μmoles/kg oral, n 7): 0% | EOS (eosinophiles) ([2]; 100 μmoles/kg oral, n 7): 1% | GB (White cells) ([2]; 100 μmoles/kg oral, n 7): 7.57 G/l | GR (Red cells) ([2]; 100 μmoles/kg oral, n 7): 7.44 T/l | HB (Hemoglobin) ([2]; 100 μmoles/kg oral, n 7): 9.46 mM | HCT (Hematocrit) ([2]; 100 μmoles/kg oral, n 7): 0.43 | LYM (Lymphocytes) ([2]; 100 μmoles/kg oral, n 7): 81% | MON (Monocytes) ([2]; 100 μmoles/kg oral, n 7): 0% | NEU (neutrophiles) ([2]; 100 μmoles/kg oral, n 7): 18% | PLT (Platelets) ([2]; 100 μmoles/kg oral, n 7): 517 G/l | VGM (Average cell volume of GR) ([2]; 100 μmoles/kg oral, n 7): 57.6 II | K^+ ([2]; 100 μmoles/kg oral, n = 2): 5.0 mM | Na^+ ([2]; 100 μmoles/kg oral, n = 2): 143 mM | ALAT (Alanine aminotransferase) ([2]; 100 μmoles/kg oral, n = 4): 58 Ul/l | ASAT (Aspartale aminotransferase) ([2]; 100 μmoles/kg oral, n = 4): 133 Ul/l | Cl^- ([2]; 100 μmoles/kg oral, n = 4): 93 mM | Prot (Proteins) ([2]; 100 μmoles/kg oral, n = 4): 55.0 g/L | PAL (Alkaline phosphalase) ([2]; 100 μmoles/kg oral, n = 5): 310 Ul/l | Urea ([2]; 100 μmoles/kg oral, n = 5): 4.05 mM | mortality [2, 4]: none of the animals had died | other signs of toxicity [2, 4]: no other sign of toxicity | tolerance ([2]; repeated oral administration): tolerated well | Glutathione peroxidase activity, H2 O2 [3]: 42.0 nmoles of hydroperoxide reduced/min
